Assays:
Mamestra brassicae [1] = assay: Insecticidal activity against last-instar Mamestra brassicae larvae assessed as larval-pupal intermediate injected at 10 ug/larvae (reference value: 0%); format: functional
Spodoptera litura [2] = assay: Insecticidal activity against last-instar Spodoptera litura larvae assessed as wing pad separation injected at 0.4 ug/larvae (reference value: 100%); format: functional
Mamestra brassicae [3] = assay: Insecticidal activity against last-instar Mamestra brassicae larvae assessed as larval-pupal intermediate at 50 ug/larvae oral administration (reference value: 0%); format: functional
Trehalase (Bombyx mori) [4] = target: T1, Trehalase (Bombyx mori) (UniProt P32358); assay: Inhibition of Bombyx mori trehalase activity in total ovaries at 10 ug/pupa; settings: Female gonad
T1 sequence (whole entry): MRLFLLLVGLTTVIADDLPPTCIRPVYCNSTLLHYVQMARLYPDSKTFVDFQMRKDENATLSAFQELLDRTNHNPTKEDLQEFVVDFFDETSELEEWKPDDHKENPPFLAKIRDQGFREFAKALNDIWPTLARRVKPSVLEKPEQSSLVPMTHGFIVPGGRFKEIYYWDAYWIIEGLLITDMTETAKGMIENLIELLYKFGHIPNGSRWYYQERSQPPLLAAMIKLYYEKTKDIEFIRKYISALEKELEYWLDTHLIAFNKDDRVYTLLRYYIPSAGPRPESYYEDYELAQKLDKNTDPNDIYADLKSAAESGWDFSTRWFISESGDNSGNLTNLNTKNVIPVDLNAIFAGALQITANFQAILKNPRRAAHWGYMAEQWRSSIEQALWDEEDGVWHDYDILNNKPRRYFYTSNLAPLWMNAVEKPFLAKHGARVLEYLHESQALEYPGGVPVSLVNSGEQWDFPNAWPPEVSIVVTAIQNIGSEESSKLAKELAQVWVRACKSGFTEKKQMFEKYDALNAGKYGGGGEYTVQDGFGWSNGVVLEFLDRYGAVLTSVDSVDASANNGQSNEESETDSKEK

Mamestra brassicae [5] = assay: Insecticidal activity against last-instar Mamestra brassicae larvae assessed as normal pupae injected at 10 ug/larvae (reference value: 90%); format: functional
Mamestra brassicae [6] = assay: Insecticidal activity against last-instar Mamestra brassicae larvae assessed as larval-pupal intermediate injected at 5 ug/larvae (reference value: 0%); format: functional
Spodoptera litura [7] = assay: Insecticidal activity against last-instar Spodoptera litura larvae assessed as partial pupation injected at 0.4 ug/larvae (reference value: […]); format: functional
Mamestra brassicae [8] = assay: Insecticidal activity against last-instar Mamestra brassicae larvae assessed as partial pupation injected at 5 ug/larvae (reference value: 10%); format: functional
[9] = Inhibition of Rhizoctonia solani beta-glucosidase; settings: read-out: I50
Trehalase = target: T2, Trehalase (Rattus norvegicus, UniProt O70282); assay: Inhibition of Rattus norvegicus (rat) trehalase; settings: read-out: I50
T2 sequence (O70282 whole entry): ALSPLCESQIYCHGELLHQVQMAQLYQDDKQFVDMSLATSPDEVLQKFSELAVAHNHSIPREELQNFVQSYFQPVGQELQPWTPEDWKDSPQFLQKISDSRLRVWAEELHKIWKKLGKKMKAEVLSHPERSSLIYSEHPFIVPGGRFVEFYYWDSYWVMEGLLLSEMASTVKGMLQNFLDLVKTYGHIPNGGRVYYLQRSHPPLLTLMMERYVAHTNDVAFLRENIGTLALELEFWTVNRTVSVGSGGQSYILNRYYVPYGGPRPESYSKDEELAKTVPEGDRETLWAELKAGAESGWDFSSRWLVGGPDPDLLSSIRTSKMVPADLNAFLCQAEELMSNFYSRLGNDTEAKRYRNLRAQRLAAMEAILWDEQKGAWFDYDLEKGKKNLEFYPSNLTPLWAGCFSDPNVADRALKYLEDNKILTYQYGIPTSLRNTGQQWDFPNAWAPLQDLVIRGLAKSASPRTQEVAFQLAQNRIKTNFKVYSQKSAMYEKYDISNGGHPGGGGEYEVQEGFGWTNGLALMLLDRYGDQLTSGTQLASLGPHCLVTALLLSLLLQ

Mamestra brassicae [10] = assay: Insecticidal activity against last-instar Mamestra brassicae larvae assessed as partial pupation injected at 50 ug/larvae (reference value: 10%); format: functional
Mamestra brassicae [11] = assay: Insecticidal activity against last-instar Mamestra brassicae larvae assessed as normal pupae injected at 5 ug/larvae (reference value: 90%); format: functional
Spodoptera litura [12] = assay: Insecticidal activity against last-instar Spodoptera litura larvae assessed as normal pupae injected at 50 ug/larvae (reference value: 100%); format: functional
Mamestra brassicae [13] = assay: Insecticidal activity against last-instar Mamestra brassicae larvae assessed as larval-pupal intermediate at 50 ug/larvae topical application (reference value: 0%); format: functional
Mamestra brassicae [14] = assay: Insecticidal activity against last-instar Mamestra brassicae larvae assessed as normal pupae at 50 ug/larvae topical application (reference value: 90%); format: functional
Spodoptera litura [15] = assay: Insecticidal activity against last-instar Spodoptera litura larvae assessed as partial pupation at 50 ug/larvae topical application (reference value: […]); format: functional
Mamestra brassicae [16] = assay: Insecticidal activity against last-instar Mamestra brassicae larvae assessed as normal pupae injected at 50 ug/larvae (reference value: 90%); format: functional
Mamestra brassicae [17] = assay: Insecticidal activity against last-instar Mamestra brassicae larvae assessed as wing pad separation injected at 1 ug/larvae (reference value: 0%); format: functional
Mamestra brassicae [18] = assay: Insecticidal activity against last-instar Mamestra brassicae larvae assessed as mortality; format: functional
Spodoptera litura [19] = assay: Insecticidal activity against last-instar Spodoptera litura larvae assessed as normal pupae injected at 2 ug/larvae (reference value: 100%); format: functional
Mamestra brassicae [20] = assay: Insecticidal activity against last-instar Mamestra brassicae larvae assessed as wing pad separation injected at 50 ug/larvae (reference value: 0%); format: functional
Trehalase (Bombyx mori) [21] = target: T1, Trehalase (Bombyx mori); assay: Inhibition of Bombyx mori trehalase activity in arborescent region of colleterial glands at 1 ug/pupa
Spodoptera litura [22] = assay: Insecticidal activity against last-instar Spodoptera litura larvae assessed as normal pupae at 50 ug/larvae topical application (reference value: 100%); format: functional
Spodoptera litura [23] = assay: Insecticidal activity against last-instar Spodoptera litura larvae assessed as larval pupal intermediate injected at 0.4 ug/larvae (reference value: […]); format: functional
Spodoptera litura [24] = assay: Insecticidal activity against last-instar Spodoptera litura larvae assessed as partial pupation injected at 50 ug/larvae (reference value: 100%); format: functional
Spodoptera litura [25] = assay: Insecticidal activity against last-instar Spodoptera litura larvae assessed as wing pad separation at 50 ug/larvae topical application (reference value: 100%); format: functional
Mamestra brassicae [26] = assay: Insecticidal activity against last-instar Mamestra brassicae larvae assessed as wing pad separation at 50 ug/larvae topical application (reference value: 0%); format: functional
Spodoptera litura [27] = assay: Insecticidal activity against last-instar Spodoptera litura larvae assessed as wing pad separation injected at 10 ug/larvae (reference value: 100%); format: functional
Mamestra brassicae [28] = assay: Insecticidal activity against last-instar Mamestra brassicae larvae assessed as wing pad separation injected at 5 ug/larvae (reference value: 0%); format: functional
[29] = Inhibition of Rhizoctonia solani alpha-glucosidase; settings: read-out: I50
Mamestra brassicae [30] = assay: Insecticidal activity against last-instar Mamestra brassicae larvae assessed as wing pad separation at 50 ug/larvae oral administration (reference value: 0%); format: functional
Mamestra brassicae [31] = assay: Insecticidal activity against last-instar Mamestra brassicae larvae assessed as normal pupae at 50 ug/larvae oral administration (reference value: 90%); format: functional
Mamestra brassicae [32] = assay: Insecticidal activity against last-instar Mamestra brassicae larvae assessed as partial pupation injected at 1 ug/larvae (reference value: 10%); format: functional

Compound: OCC1=C[C@H](N[C@H]2C[C@H](CO)[C@@H](O)[C@H](O)[C@H]2O)[C@H](O)[C@@H](O)[C@@H]1O [VALIDOXYLAMINE A]
- Activity (Mamestra brassicae [1]): 80%
- Activity (Spodoptera litura [2]): 5%
- Activity (Mamestra brassicae [3]): 0%
- inhibition (Trehalase (Bombyx mori) [4]): 78%
- Activity (Mamestra brassicae [5]): 0%
- Activity (Mamestra brassicae [6]): 60%
- Activity (Spodoptera litura [7]): 10%
- Activity (Mamestra brassicae [8]): 27%
- IC50 [9]: > 1000 µM
- IC50 (Trehalase): 0.0049 µM
- Activity (Mamestra brassicae [10]): 0%
- Activity (Mamestra brassicae [11]): 7%
- Activity (Spodoptera litura [12]): 0%
- Activity (Mamestra brassicae [13]): 0%
- Activity (Mamestra brassicae [14]): 60%
- Activity (Spodoptera litura [15]): 5%
- Activity (Mamestra brassicae [16]): 0%
- Activity (Mamestra brassicae [17]): 20%
- LD50 (Mamestra brassicae [18]): <1 µg
- Activity (Spodoptera litura [19]): 60%
- Activity (Mamestra brassicae [20]): 0%
- inhibition (Trehalase (Bombyx mori) [21]): 78%
- Activity (Spodoptera litura [22]): 85%
- Activity (Spodoptera litura [23]): 0%
- Activity (Spodoptera litura [24]): 30%
- Activity (Spodoptera litura [25]): 5%
- Activity (Mamestra brassicae [26]): 0%
- Activity (Spodoptera litura [27]): 15%
- Activity (Mamestra brassicae [28]): 7%
- IC50 [29]: > 1000 µM
- Activity (Mamestra brassicae [30]): 10%
- Activity (Mamestra brassicae [31]): 90%
- Activity (Mamestra brassicae [32]): 27%

Source: ChEMBL document CHEMBL3044761, “Lethal Activity of a Trehalase Inhibitor, Validoxylamine A, against Mamestra brassicae and Spodoptera litura” (J Pestic Sci, 1994)
